The target in test [1] is T1, Serine/threonine-protein kinase LATS2 (Homo sapiens) (UniProt Q9NRM7).
T1 sequence (whole entry): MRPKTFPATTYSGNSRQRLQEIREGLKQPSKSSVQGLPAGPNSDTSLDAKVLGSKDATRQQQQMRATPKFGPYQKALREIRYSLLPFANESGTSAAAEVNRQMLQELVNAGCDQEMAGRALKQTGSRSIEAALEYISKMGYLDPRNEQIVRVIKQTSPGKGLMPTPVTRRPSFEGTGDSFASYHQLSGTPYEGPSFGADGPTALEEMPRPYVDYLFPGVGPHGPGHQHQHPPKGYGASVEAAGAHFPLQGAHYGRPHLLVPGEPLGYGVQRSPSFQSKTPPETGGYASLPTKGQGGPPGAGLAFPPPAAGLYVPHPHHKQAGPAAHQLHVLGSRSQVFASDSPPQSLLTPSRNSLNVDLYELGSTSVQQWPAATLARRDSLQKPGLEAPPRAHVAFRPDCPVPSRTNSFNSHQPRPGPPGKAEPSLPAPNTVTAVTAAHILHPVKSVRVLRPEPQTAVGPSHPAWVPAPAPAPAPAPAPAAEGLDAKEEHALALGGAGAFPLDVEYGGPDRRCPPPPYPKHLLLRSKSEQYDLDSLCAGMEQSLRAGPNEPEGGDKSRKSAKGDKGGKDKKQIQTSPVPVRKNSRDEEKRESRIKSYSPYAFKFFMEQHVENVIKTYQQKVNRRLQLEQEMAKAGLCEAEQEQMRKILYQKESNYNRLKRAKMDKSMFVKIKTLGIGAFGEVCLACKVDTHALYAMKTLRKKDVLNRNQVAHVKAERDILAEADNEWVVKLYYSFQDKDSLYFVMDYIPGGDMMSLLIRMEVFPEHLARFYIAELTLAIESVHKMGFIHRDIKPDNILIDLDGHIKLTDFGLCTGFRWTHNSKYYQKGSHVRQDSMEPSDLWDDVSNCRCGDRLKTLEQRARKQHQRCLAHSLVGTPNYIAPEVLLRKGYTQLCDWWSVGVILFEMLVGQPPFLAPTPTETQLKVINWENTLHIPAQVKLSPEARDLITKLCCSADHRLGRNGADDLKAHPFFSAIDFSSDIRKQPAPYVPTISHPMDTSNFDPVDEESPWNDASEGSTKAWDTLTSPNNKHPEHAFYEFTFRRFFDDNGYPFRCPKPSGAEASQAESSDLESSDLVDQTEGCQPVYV
As to the kind of experiment: Selectivity interaction (KinomeScan (DiscoverX)) EUB0000607a LATS2. The settings on record: at 10 µM.

Test [2] addresses Homeodomain-interacting protein kinase 1 (Homo sapiens, UniProt Q86Z02). As to the kind of experiment: Selectivity interaction (KinomeScan (DiscoverX)) EUB0000666a HIPK1. The settings on record: at 10 µM.
Test [3] addresses T2, Serine/threonine-protein kinase STK11 (Homo sapiens) (UniProt Q15831).
T2 sequence (whole entry): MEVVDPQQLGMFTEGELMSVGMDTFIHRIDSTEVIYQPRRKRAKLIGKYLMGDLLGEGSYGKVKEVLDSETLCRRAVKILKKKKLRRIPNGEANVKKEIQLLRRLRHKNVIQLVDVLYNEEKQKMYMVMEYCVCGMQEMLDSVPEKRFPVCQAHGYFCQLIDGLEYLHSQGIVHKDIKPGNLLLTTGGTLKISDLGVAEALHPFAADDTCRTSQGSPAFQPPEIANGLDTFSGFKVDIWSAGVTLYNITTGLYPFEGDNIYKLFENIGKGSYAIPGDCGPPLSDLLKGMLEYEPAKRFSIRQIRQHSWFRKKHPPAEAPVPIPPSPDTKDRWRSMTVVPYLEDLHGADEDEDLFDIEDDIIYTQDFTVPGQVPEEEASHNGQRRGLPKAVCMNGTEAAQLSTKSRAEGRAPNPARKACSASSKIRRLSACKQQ
Description: Selectivity interaction (KinomeScan (DiscoverX)) EUB0001079a STK11. The settings on record: at 1 µM.

The target in test [4] is Tyrosine-protein kinase Fer (Homo sapiens) (UniProt P16591). As to the kind of experiment: Selectivity interaction (ActivX KiNativ screen (kinase selectivity in THP-1 cell lysates)) EUB0000639a FER. It is filed as subcellular. The settings on record: lysate, at 0.01 µM.
Sequence of Tyrosine-protein kinase Fer (Homo sapiens) (P16591 whole entry, looked up): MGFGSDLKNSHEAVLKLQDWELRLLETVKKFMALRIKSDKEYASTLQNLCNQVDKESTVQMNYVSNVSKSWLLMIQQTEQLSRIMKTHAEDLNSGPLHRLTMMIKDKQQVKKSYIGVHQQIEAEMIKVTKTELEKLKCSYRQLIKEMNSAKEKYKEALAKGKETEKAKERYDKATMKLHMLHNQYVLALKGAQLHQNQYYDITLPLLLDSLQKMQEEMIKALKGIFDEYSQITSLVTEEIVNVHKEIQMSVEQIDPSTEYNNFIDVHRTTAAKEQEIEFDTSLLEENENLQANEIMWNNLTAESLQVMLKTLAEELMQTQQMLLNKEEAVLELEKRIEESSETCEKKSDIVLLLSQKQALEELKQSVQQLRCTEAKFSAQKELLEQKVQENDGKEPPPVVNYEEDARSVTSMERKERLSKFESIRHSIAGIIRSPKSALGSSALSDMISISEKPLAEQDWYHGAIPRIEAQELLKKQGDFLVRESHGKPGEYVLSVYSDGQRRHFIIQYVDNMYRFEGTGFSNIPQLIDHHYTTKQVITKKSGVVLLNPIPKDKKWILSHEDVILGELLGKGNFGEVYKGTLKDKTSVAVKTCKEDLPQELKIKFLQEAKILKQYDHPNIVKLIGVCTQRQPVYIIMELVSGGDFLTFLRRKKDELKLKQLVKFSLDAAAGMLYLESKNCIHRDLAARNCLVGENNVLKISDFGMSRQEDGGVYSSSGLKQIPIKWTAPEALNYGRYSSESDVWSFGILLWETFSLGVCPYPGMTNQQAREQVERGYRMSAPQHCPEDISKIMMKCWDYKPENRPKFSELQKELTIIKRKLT
Test [5] addresses T3, Serine/threonine-protein kinase ICK (Homo sapiens) (UniProt Q9UPZ9).
T3 sequence (whole entry): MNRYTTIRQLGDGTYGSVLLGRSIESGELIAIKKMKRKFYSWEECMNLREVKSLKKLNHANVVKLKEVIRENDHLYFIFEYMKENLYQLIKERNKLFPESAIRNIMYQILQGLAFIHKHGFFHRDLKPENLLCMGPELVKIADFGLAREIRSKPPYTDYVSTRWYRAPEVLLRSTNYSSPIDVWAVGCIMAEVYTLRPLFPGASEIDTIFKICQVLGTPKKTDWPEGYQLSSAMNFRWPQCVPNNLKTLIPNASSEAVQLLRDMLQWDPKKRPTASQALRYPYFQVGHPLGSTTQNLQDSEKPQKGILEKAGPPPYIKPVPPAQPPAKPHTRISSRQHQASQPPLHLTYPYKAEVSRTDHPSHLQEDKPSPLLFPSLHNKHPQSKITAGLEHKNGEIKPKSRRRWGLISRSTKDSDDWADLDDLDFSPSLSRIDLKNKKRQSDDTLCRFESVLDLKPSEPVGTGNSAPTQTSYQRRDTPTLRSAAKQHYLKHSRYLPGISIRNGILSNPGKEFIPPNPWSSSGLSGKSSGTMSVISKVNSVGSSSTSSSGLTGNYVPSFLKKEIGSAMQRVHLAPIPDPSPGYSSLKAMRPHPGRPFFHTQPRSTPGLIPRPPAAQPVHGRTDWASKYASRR
As to the kind of experiment: Selectivity interaction (KinomeScan (DiscoverX)) EUB0000092b ICK. The settings on record: at 10 µM.

The source of these data is ChEMBL document CHEMBL5465560, “Selectivity Literature for EUbOPEN Chemogenomic Library” (2024).

Sequence of Homeodomain-interacting protein kinase 1 (Q86Z02 whole entry, looked up): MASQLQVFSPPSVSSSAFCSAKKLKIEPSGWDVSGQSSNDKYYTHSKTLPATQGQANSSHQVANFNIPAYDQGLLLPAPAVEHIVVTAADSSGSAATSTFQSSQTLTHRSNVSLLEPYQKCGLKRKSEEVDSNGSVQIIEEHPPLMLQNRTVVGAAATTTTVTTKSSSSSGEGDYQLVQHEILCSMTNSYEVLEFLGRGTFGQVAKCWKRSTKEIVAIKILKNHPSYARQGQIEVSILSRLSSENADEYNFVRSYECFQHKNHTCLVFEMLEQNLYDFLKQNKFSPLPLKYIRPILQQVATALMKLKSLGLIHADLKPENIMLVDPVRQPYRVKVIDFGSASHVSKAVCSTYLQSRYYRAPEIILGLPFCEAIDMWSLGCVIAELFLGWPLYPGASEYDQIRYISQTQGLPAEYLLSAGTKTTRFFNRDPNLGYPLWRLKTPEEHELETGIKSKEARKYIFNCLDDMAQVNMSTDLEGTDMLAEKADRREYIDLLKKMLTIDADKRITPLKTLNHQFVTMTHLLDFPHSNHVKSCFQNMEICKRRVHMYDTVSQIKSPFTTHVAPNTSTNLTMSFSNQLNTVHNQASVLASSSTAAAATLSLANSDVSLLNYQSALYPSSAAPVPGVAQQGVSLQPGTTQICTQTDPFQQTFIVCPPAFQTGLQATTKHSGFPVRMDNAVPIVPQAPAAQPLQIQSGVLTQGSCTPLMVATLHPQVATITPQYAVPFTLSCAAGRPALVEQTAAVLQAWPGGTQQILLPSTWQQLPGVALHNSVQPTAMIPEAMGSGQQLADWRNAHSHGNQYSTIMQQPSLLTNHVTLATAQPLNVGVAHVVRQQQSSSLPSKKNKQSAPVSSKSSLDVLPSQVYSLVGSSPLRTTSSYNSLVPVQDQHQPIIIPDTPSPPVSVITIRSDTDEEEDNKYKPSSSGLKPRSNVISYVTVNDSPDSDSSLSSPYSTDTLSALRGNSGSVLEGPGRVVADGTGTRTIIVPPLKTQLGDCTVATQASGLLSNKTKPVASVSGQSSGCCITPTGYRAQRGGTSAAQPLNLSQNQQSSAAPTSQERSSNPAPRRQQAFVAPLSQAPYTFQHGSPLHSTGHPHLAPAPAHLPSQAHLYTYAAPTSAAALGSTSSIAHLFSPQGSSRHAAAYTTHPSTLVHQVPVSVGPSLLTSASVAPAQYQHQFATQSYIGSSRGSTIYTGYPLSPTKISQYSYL

Take `CNC(=O)Nc1ccc(-c2nc(N3CC4CCC(C3)O4)c3cnn(C4CCC5(CC4)OCCO5)c3n2)cc1`: the % of control in test [1] worked out at 76%.

In test [2], `O=C(NOC[C@H](O)CO)c1ccc(F)c(F)c1Nc1ccc(I)cc1F` returned a % of control of 91%.

In test [3], `Nc1cnc(N2CCc3cc(S(=O)(=O)Nc4c(F)cc(Cl)cc4F)cc(N4CCCC4=O)c32)nc1` [TP-020n] had a % of control of 100%.

Consider `CC[C@@H]1[C@H](F)C(=O)N[C@@H]1COc1nccc2cc(C(N)=O)c(OC)cc12` [ZIMLOVISERTIB], for which the % of inhibition in test [4] is -9%.

For the compound `CCC(=O)N1CCN(c2ccc(-n3c(=O)ccc4cnc5ccc(-c6cnc7ccccc7c6)cc5c43)cc2C(F)(F)F)CC1`, in test [5], the % of control stood at 100%.
